Tested on: 463943-066-T-J2-PDC complex spheroid growth
Test: Anticancer human tumor 463943-066-T-J2-PDC patient-derived colon adenocarcinoma cell line growth inhibition [Asc]
Settings: for IC50: curve of first compound; for viability, T/C: stronger effect = lower value
Method in brief: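 Stromal components (HUVEC and hMSC) are co-assembled with the cancer cells into multicellular spheroids. Drugs are then added singly or paired, at concentrations falling by half-log increments from a clinically achievable maximum, capped at 10 microM without known Cmax.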

[1] = second compound 0.00316 µM, first compound 0.0316 µM
[2] = second compound 0.00316 µM, first compound 0.1 µM
[3] = second compound 0.01 µM, first compound 0.0316 µM
[4] = second compound 0.01 µM, first compound 0.1 µM
[5] = second compound 0.0316 µM, first compound 0.0316 µM
[6] = second compound 0.0316 µM, first compound 0.1 µM
[7] = second compound 0.1 µM, first compound 0.0316 µM
[8] = second compound 0.1 µM, first compound 0.1 µM
[9] = second compound 0.316 µM, first compound 0.0316 µM
[10] = second compound 0.316 µM, first compound 0.1 µM
[11] = second compound 1 µM, first compound 0.0316 µM
[12] = second compound 1 µM, first compound 0.1 µM
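Further: compound exposure lasted 7 days.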
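Wherever viability, T/C is given: 100% = DMSO vehicle control wells.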

In the case of `Cc1nc(N2CCC3(CC2)COC(C)C3N)c(CO)nc1Sc1ccnc(N)c1Cl` (stereo unspecified) + CCN1C(C(=O)NC23CCC(C(=O)O)(CC2)CC3)C(c2cccc(Cl)c2F)C2(C(=O)Nc3cc(Cl)ccc32)C12CCCCC2, the IC50 (second compound 0.00949 µM) is reported as > 3 µM, the IC50 (second compound 0.03 µM) is reported as > 3 µM and the IC50 (second compound 0.0949 µM) is reported as > 3 µM. For the same compound, the IC50 (second compound 0.3 µM) was > 3 µM, the IC50 (second compound 0.949 µM) was > 3 µM and the IC50 (second compound 3 µM) was > 3 µM. It also gave a viability, T/C (second compound 0.00949 µM, first compound 0.00949 µM) of 96.7%, a viability, T/C (second compound 0.00949 µM, first compound 0.03 µM) of 88% and a viability, T/C (second compound 0.00949 µM, first compound 0.0949 µM) of 87%. The viability, T/C (second compound 0.00949 µM, first compound 0.3 µM) was 81.5%, the viability, T/C (second compound 0.00949 µM, first compound 0.949 µM) was 82.3% and the viability, T/C (second compound 0.00949 µM, first compound 3 µM) was 63.6%. The viability, T/C (second compound 0.03 µM, first compound 0.00949 µM) was 91%, the viability, T/C (second compound 0.03 µM, first compound 0.03 µM) was 91.3% and the viability, T/C (second compound 0.03 µM, first compound 0.0949 µM) was 81.2%. For the same compound, the viability, T/C (second compound 0.03 µM, first compound 0.3 µM) was 82.2%, the viability, T/C (second compound 0.03 µM, first compound 0.949 µM) was 74% and the viability, T/C (second compound 0.03 µM, first compound 3 µM) was 60%. It also gave a viability, T/C (second compound 0.0949 µM, first compound 0.00949 µM) of 90.1%, a viability, T/C (second compound 0.0949 µM, first compound 0.03 µM) of 86.8% and a viability, T/C (second compound 0.0949 µM, first compound 0.0949 µM) of 76.2%. For the same compound, the viability, T/C (second compound 0.0949 µM, first compound 0.3 µM) was 75.7%, the viability, T/C (second compound 0.0949 µM, first compound 0.949 µM) was 71.5% and the viability, T/C (second compound 0.0949 µM, first compound 3 µM) was 61.9%. It also gave a viability, T/C (second compound 0.3 µM, first compound 0.00949 µM) of 82.7%, a viability, T/C (second compound 0.3 µM, first compound 0.03 µM) of 82.5% and a viability, T/C (second compound 0.3 µM, first compound 0.0949 µM) of 82.5%. It also gave a viability, T/C (second compound 0.3 µM, first compound 0.3 µM) of 72.2%, a viability, T/C (second compound 0.3 µM, first compound 0.949 µM) of 64% and a viability, T/C (second compound 0.3 µM, first compound 3 µM) of 59.1%. The viability, T/C (second compound 0.949 µM, first compound 0.00949 µM) was 74.3%, the viability, T/C (second compound 0.949 µM, first compound 0.03 µM) was 72.2% and the viability, T/C (second compound 0.949 µM, first compound 0.0949 µM) was 62.7%. It also gave a viability, T/C (second compound 0.949 µM, first compound 0.3 µM) of 62.3%, a viability, T/C (second compound 0.949 µM, first compound 0.949 µM) of 60.3% and a viability, T/C (second compound 0.949 µM, first compound 3 µM) of 53.2%. For the same compound, the viability, T/C (second compound 3 µM, first compound 0.00949 µM) was 70.7%, the viability, T/C (second compound 3 µM, first compound 0.03 µM) was 64.6% and the viability, T/C (second compound 3 µM, first compound 0.0949 µM) was 64.1%. It also gave a viability, T/C (second compound 3 µM, first compound 0.3 µM) of 63%, a viability, T/C (second compound 3 µM, first compound 0.949 µM) of 60.6% and a viability, T/C (second compound 3 µM, first compound 3 µM) of 49.6%.
For `Cn1ncnc1[C@H]1c2n[nH]c(=O)c3cc(F)cc(c23)N[C@@H]1c1ccc(F)cc1` + CNC(C)C(=O)NC1CN(S(=O)(=O)c2cccc(S(=O)(=O)N3CCC4CCC(C(=O)NC(c5ccccc5)c5ccccc5)N4C(=O)C(NC(=O)C(C)NC)C3)c2)CCC2CCC(C(=O)NC(c3ccccc3)c3ccccc3)N2C1=O, the IC50 (second compound 0.00316 µM) was > 0.1 µM, the IC50 (second compound 0.01 µM) was > 0.1 µM and the IC50 (second compound 0.0316 µM) was > 0.1 µM. The IC50 (second compound 0.1 µM) was > 0.1 µM, the IC50 (second compound 0.316 µM) was > 0.1 µM and the IC50 (second compound 1 µM) was > 0.1 µM. It also gave a viability, T/C (second compound 0.00316 µM, first compound 0.000316 µM) of 92.7%, a viability, T/C (second compound 0.00316 µM, first compound 0.001 µM) of 91.4% and a viability, T/C (second compound 0.00316 µM, first compound 0.00316 µM) of 94.3%. For the same compound, the viability, T/C (second compound 0.00316 µM, first compound 0.01 µM) was 94%, the viability, T/C [1] was 101% and the viability, T/C [2] was 92.4%. The viability, T/C (second compound 0.01 µM, first compound 0.000316 µM) was 92.4%, the viability, T/C (second compound 0.01 µM, first compound 0.001 µM) was 89.9% and the viability, T/C (second compound 0.01 µM, first compound 0.00316 µM) was 94.3%. It also gave a viability, T/C (second compound 0.01 µM, first compound 0.01 µM) of 94.8%, a viability, T/C [3] of 97.3% and a viability, T/C [4] of 87.2%. It also gave a viability, T/C (second compound 0.0316 µM, first compound 0.000316 µM) of 91.6%, a viability, T/C (second compound 0.0316 µM, first compound 0.001 µM) of 97.8% and a viability, T/C (second compound 0.0316 µM, first compound 0.00316 µM) of 99.2%. The viability, T/C (second compound 0.0316 µM, first compound 0.01 µM) was 94%, the viability, T/C [5] was 103% and the viability, T/C [6] was 85.6%. For the same compound, the viability, T/C (second compound 0.1 µM, first compound 0.000316 µM) was 104%, the viability, T/C (second compound 0.1 µM, first compound 0.001 µM) was 93.9% and the viability, T/C (second compound 0.1 µM, first compound 0.00316 µM) was 100%. It also gave a viability, T/C (second compound 0.1 µM, first compound 0.01 µM) of 91.9%, a viability, T/C [7] of 105% and a viability, T/C [8] of 93.9%. It also gave a viability, T/C (second compound 0.316 µM, first compound 0.000316 µM) of 98.3%, a viability, T/C (second compound 0.316 µM, first compound 0.001 µM) of 93% and a viability, T/C (second compound 0.316 µM, first compound 0.00316 µM) of 89.4%. For the same compound, the viability, T/C (second compound 0.316 µM, first compound 0.01 µM) was 93%, the viability, T/C [9] was 99.7% and the viability, T/C [10] was 85.4%. For the same compound, the viability, T/C (second compound 1 µM, first compound 0.000316 µM) was 89.9%, the viability, T/C (second compound 1 µM, first compound 0.001 µM) was 86.8% and the viability, T/C (second compound 1 µM, first compound 0.00316 µM) was 84.2%. For the same compound, the viability, T/C (second compound 1 µM, first compound 0.01 µM) was 87.5%, the viability, T/C [11] was 80.8% and the viability, T/C [12] was 83.2%.
`O=C(c1cc(Cc2n[nH]c(=O)c3ccccc23)ccc1F)N1CCN(C(=O)C2CC2)CC1` + CNC(C)C(=O)NC1CN(S(=O)(=O)c2cccc(S(=O)(=O)N3CCC4CCC(C(=O)NC(c5ccccc5)c5ccccc5)N4C(=O)C(NC(=O)C(C)NC)C3)c2)CCC2CCC(C(=O)NC(c3ccccc3)c3ccccc3)N2C1=O was tested, and the IC50 (second compound 0.00316 µM) was > 10 µM, the IC50 (second compound 0.01 µM) was > 10 µM and the IC50 (second compound 0.0316 µM) was > 10 µM. For the same compound, the IC50 (second compound 0.1 µM) was > 10 µM, the IC50 (second compound 0.316 µM) was > 10 µM and the IC50 (second compound 1 µM) was > 10 µM. It also gave a viability, T/C [1] of 91.4%, a viability, T/C [2] of 95.9% and a viability, T/C (second compound 0.00316 µM, first compound 0.316 µM) of 96.9%. The viability, T/C (second compound 0.00316 µM, first compound 1 µM) was 103%, the viability, T/C (second compound 0.00316 µM, first compound 3.16 µM) was 89.4% and the viability, T/C (second compound 0.00316 µM, first compound 10 µM) was 86.2%. The viability, T/C [3] was 94.1%, the viability, T/C [4] was 87.5% and the viability, T/C (second compound 0.01 µM, first compound 0.316 µM) was 91.9%. The viability, T/C (second compound 0.01 µM, first compound 1 µM) was 97.5%, the viability, T/C (second compound 0.01 µM, first compound 3.16 µM) was 110% and the viability, T/C (second compound 0.01 µM, first compound 10 µM) was 87.6%. The viability, T/C [5] was 98.1%, the viability, T/C [6] was 100% and the viability, T/C (second compound 0.0316 µM, first compound 0.316 µM) was 97.4%. It also gave a viability, T/C (second compound 0.0316 µM, first compound 1 µM) of 99.2%, a viability, T/C (second compound 0.0316 µM, first compound 3.16 µM) of 92.8% and a viability, T/C (second compound 0.0316 µM, first compound 10 µM) of 82.9%. The viability, T/C [7] was 106%, the viability, T/C [8] was 93.3% and the viability, T/C (second compound 0.1 µM, first compound 0.316 µM) was 90.6%. For the same compound, the viability, T/C (second compound 0.1 µM, first compound 1 µM) was 95.8%, the viability, T/C (second compound 0.1 µM, first compound 3.16 µM) was 91.3% and the viability, T/C (second compound 0.1 µM, first compound 10 µM) was 86.2%. For the same compound, the viability, T/C [9] was 90.9%, the viability, T/C [10] was 91.8% and the viability, T/C (second compound 0.316 µM, first compound 0.316 µM) was 85.1%. It also gave a viability, T/C (second compound 0.316 µM, first compound 1 µM) of 98.1%, a viability, T/C (second compound 0.316 µM, first compound 3.16 µM) of 87.2% and a viability, T/C (second compound 0.316 µM, first compound 10 µM) of 91.3%. The viability, T/C [11] was 90.5%, the viability, T/C [12] was 95% and the viability, T/C (second compound 1 µM, first compound 0.316 µM) was 84.4%. It also gave a viability, T/C (second compound 1 µM, first compound 1 µM) of 89.7%, a viability, T/C (second compound 1 µM, first compound 3.16 µM) of 85.9% and a viability, T/C (second compound 1 µM, first compound 10 µM) of 80.9%.
